{"source": "paper PMC6481345", "about": "“A novel anti-melanoma SRC-family kinase inhibitor” (Oncotarget, 2019)", "key": {"[1]": {"system": "panel of 36 recombinant kinases", "experiment": "Radioisotope filter assay, panel of recombinant kinases (summary)", "assay_type": "biochemical", "conditions": "SRC-family kinases YES1, BLK, LCK, FGR, HCK and FYN; read-out: IC50, range over kinases", "protocol": "The effect of SAB298 on a panel of 36 recombinant kinases, was screed with the radioisotope filter binding assay employing 10 concentrations of the compound with 10 µM ATP (Reaction Biology Corporation, Malvern, PA). In addition, we tested the endogenous kinome response to SAB298 (0.05 µM, 0.5 µM and 5 µM) in lysates from two melanoma cell lines (YUSIV and YUSIK) employing the KiNativ® platform (ActivX Biosciences Inc., La Jolla, CA). KiNativ® is a robust, high performance mass spectrometry (LC-MS^2) assay that uses biotinylated probes to measure relevant changes in the affinity to the ATP-binding sites of 205 native kinases as a function of cellular context. We also validated SAB298 effect on the activity of SRC-family kinases by probing for phosphorylated Y416, the marker of activated SFKs, with anti-IEDNEpYTAR antibodies (also known as Y419, #2101, Cell Signaling Technology, Beverly, MA). In some cases the cells were incubated overnight with 20 µM proteasome inhibitor MG-132 (CAS 133407-82-6, Millipore Sigma, Burlington, MA) to rescue degradation.\nSupplemntary Table 3: Radioisotope filter activity assay Tests for SAB298 target protein\n*These are results from 10 point dose response test employed with 10 µM ATP.\nSupplementary Table 4: Lentiviral vectors MISSION pLKO.1 puromycin bearing SFK shRNA used to test the effect of\nspecific SFK downregulation on cell proliferation […]"}, "YUSOC melanoma cells": {"system": "YUSOC melanoma cells", "experiment": "CellTiter-Glo Luminescent Cell Viability Assay", "assay_type": "cell-based, human", "conditions": "RAF1 T491I, NF1 null/RAC1 P29S", "protocol": "(§1) The melanoma cells were grown in OptiMEM (Invitrogen, Carlsbad, CA) supplemented with 5% fetal calf serum and antibiotics. The normal human melanocytes (NBMEL) were grown in medium supplemented with bFGF, IBMX and dbcAMP [32]. Most of the Yale melanoma cell lines were characterized by next-generation sequencing (Supplementary Table 2).\n(§2) Cell proliferation was measured with the CellTiter-Glo® Luminescent Cell Viability Assay (Promega Corporation, Madison, WI). Melanoma cells were seeded in 96-well plates in triplicate or quadruplet wells, with increasing concentrations of kinase inhibitors for 72 hrs. The rate of proliferation was also tested after knockdown of different SRC-family kinases (SFK) with hairpin lentivirus shRNA as indicated. […] The statistical significance of synergism of response to drug combinations was evaluated by following Chou and Talalay algorithm. See also details in Supplementary Material."}, "YUSEEP melanoma cells": {"system": "YUSEEP melanoma cells", "experiment": "CellTiter-Glo Luminescent Cell Viability Assay", "assay_type": "cell-based, human", "conditions": "growth response", "protocol": "as §1, §2"}, "YUROB melanoma cells": {"system": "YUROB melanoma cells", "experiment": "CellTiter-Glo Luminescent Cell Viability Assay", "assay_type": "cell-based, human", "protocol": "as §1, §2"}, "YUSIV melanoma cells": {"system": "YUSIV melanoma cells", "experiment": "CellTiter-Glo Luminescent Cell Viability Assay", "assay_type": "cell-based, human", "protocol": "as §1, §2"}, "YUSIT1 melanoma cells": {"system": "YUSIT1 melanoma cells", "experiment": "CellTiter-Glo Luminescent Cell Viability Assay", "assay_type": "cell-based, human", "protocol": "as §1, §2"}, "501 mel melanoma cells": {"system": "501 mel melanoma cells", "experiment": "CellTiter-Glo Luminescent Cell Viability Assay", "assay_type": "cell-based, human", "conditions": "for IC50: Homo sapiens", "protocol": "as §1, §2"}, "YUGASP melanoma cells": {"system": "YUGASP melanoma cells", "experiment": "CellTiter-Glo Luminescent Cell Viability Assay", "assay_type": "cell-based, human", "conditions": "growth response", "protocol": "as §1, §2"}, "phospho-ERBB2 Y1196": {"system": "phospho-ERBB2 Y1196", "experiment": "Western blot, phospho-ERBB2", "assay_type": "cell-based, human", "conditions": "YUSOC, YUROB, YUSIV, YUTOGS", "protocol": "We used standard techniques to identify changes in intracellular signaling in response to various treatments. Briefly, melanoma cells were incubated with test compounds, using DMSO as a control, collected by scraping on ice, and lysed in RIPA buffer supplemented with protease and phosphatase inhibitors (MA #78428, and #78425, respectively, Thermo Fisher Scientific, Waltham, MA). Protein concentrations were measured with the BioRad kit (Bio-Rad Laboratories, Hercules, CA), SDS sample buffer was added, extracts were heated at 95°C, sonicated and centrifuged. Cell extracts (20 µg/lane) were fractionated in 3%–8% or 4–12 % tris-acetate gel (NP0006, NuPAGE Life Technologies). […]"}}, "note": "Like-named read-outs stand apart in the source and are kept apart here.", "data": [{"compound": "Nc1ncnc2c1c(-c1ccc(Oc3ccccc3)cc1)nn2C[C@@H]1SSC[C@@H]1O", "note": "[SAB298, (3S, 4S)-3-((4-amino-3-(4-phenoxyphenyl)-1H-pyrazolo[3,4-d]pyrimidin-1-yl)methyl)-1,2-dithiolan-4-ol]", "values": [{"measurement": "IC50", "setting": "[1]", "result": "0.7 to 21.7", "unit": "nM"}, {"measurement": "IC50", "setting": "YUSOC melanoma cells; Homo sapiens, 72 h", "result": 154, "unit": "nM"}, {"measurement": "IC50", "setting": "YUSOC melanoma cells; 72 hrs", "result": 157, "unit": "nM"}, {"measurement": "AUC1", "setting": "YUSEEP melanoma cells", "result": 292}, {"measurement": "AUC2", "setting": "YUSEEP melanoma cells", "result": 40}, {"measurement": "IC50", "setting": "YUROB melanoma cells; Homo sapiens, 72 h, YUROB, HRAS Q61K, cell viability, 72 hrs, read-out: IC50", "result": 696, "unit": "nM"}, {"measurement": "IC50", "setting": "YUROB melanoma cells; Homo sapiens, YUROB HRAS Q61K, Variation 2 (0 effect omitted), read-out: Dm (dose for median effect, median-effect equation)", "result": 1860, "unit": "nM"}, {"measurement": "IC50", "setting": "YUROB melanoma cells; Homo sapiens, YUROB HRASQ61K, Variation 1 (0 effect coded 1E-6), read-out: Dm (dose for median effect, median-effect equation)", "result": 5180, "unit": "nM"}, {"measurement": "IC50", "setting": "YUROB melanoma cells; YUROB, HRAS Q61K, cell viability, 72 hrs, read-out: IC50", "result": 1250, "unit": "nM"}, {"measurement": "AUC1", "setting": "YUROB melanoma cells; YUROB, growth response", "result": 148}, {"measurement": "AUC2", "setting": "YUROB melanoma cells; YUROB, growth response", "result": 9}, {"measurement": "IC50", "setting": "YUSIV melanoma cells; Homo sapiens, PDE8A-RAF1 fusion, cell viability, 72 hrs", "result": 81, "unit": "nM"}, {"measurement": "AUC1", "setting": "YUSIV melanoma cells; growth response", "result": 656}, {"measurement": "AUC2", "setting": "YUSIV melanoma cells; growth response", "result": 10}, {"measurement": "IC50", "setting": "YUSIT1 melanoma cells; Homo sapiens, YUSIT1, BRAF V600K, cell viability, 72 hrs", "result": 238, "unit": "nM"}, {"measurement": "AUC1", "setting": "YUSIT1 melanoma cells; YUSIT1, growth response", "result": 166}, {"measurement": "AUC2", "setting": "YUSIT1 melanoma cells; YUSIT1, growth response", "result": 32}, {"measurement": "AUC1", "setting": "501 mel melanoma cells; 501 mel, growth response", "result": 37}, {"measurement": "AUC2", "setting": "501 mel melanoma cells; 501 mel, growth response", "result": 133}, {"measurement": "IC50", "setting": "501 mel melanoma cells; 501 mel BRAF V600E, Variation 2 (0 effect omitted), read-out: Dm (dose for median effect, median-effect equation)", "result": 3860, "unit": "nM"}, {"measurement": "IC50", "setting": "501 mel melanoma cells; 501 mel BRAFV600E, Variation 1 (0 effect coded 1E-6), read-out: Dm (dose for median effect, median-effect equation)", "result": 7150, "unit": "nM"}, {"measurement": "IC50", "setting": "501 mel melanoma cells; 72 h, 501 mel, BRAF V600E, cell viability, 72 hrs, read-out: IC50", "result": 551, "unit": "nM"}, {"measurement": "AUC1", "setting": "YUGASP melanoma cells", "result": 119}, {"measurement": "AUC2", "setting": "YUGASP melanoma cells", "result": 103}, {"measurement": "phospho-ERBB2 Y1196 level", "setting": "phospho-ERBB2 Y1196", "result": "suppressed phospho-ERBB2 Y1196"}]}]}
